Measured values taken from patent publication US9814707B2, “Cancer stem cell proliferation inhibitor and intracellular active oxygen accumulation inducer” (Keio University, priority 2014, dated 2017).

How the values were obtained:
[1] = tested on: HSC2, HSC3, HSC4, and OSC19 cells; test: Sensitivity of squamous cell carcinoma cell lines to cisplatin, cell viability by Celltiter-Glo after 72 hours; format: cell-based; conditions: OSC19 compared with HSC2, HSC3, and HSC4, cisplatin 1, 2.5, 5, 7.5 μM, FIG. 3
Procedure: Next, GSH levels in the cells were measured using GSH-Glo™ Glutathione Assay (Promega) to examine the correlation with the CD44v expression. Furthermore, in order to examine the sensitivity of the cell lines in which CD44 expression is suppressed to cisplatin, each cell line was seeded onto a 96-well plate at 2000 cells/well and cisplatin was added the following day at concentrations of 1, 2.5, 5, and 7.5 μM. After 72 hours, the cell viability was measured using Celltiter-Glo (Promega).

OSC19 cells [2] = test: Level of reactive oxygen species by H2DCFDA staining, fluorescence microscopy; format: cell-based; conditions: 10 μM, 24 hours, FIG. 6
Procedure: Next, change in level of reactive oxygen species by the compounds having a high selectivity to OSC19 was examined. OSC19 cells were seeded onto 24-well glass-bottomed plate at 1×10^5 cells/well, and each compound was added at 10 μM on the following day. Subsequently, the cells were incubated for 24 hours, stained with 2′,7′-dichloro-dihydro-fluorescein-diacetate (H2DCFDA), which is a redox fluorescence indicator, and observed under a fluorescence microscope. In addition, their ability of inducing the reactive oxygen species was evaluated according to the fluorescence intensity. FIG. 6 is fluorescence micrographs of OSC19 cells treated with the compounds given in Table 1, showing the increase in ROS in OSC19 cells scored on 4 rating scales. The “4 rating scales” are as follows.

OSC19 and HSC4 cells [3] = test: Cell viability by Celltiter-Glo after 72 hours with pimozide or sulfasalazine; format: cell-based; conditions: FIGS. 7 and 8; for sensitivity of OSC19 cells versus HSC4 cells (cell viability): pimozide 0.3-100 μM, sulfasalazine 10-1000 μM
Procedure: Cell viability was examined for OSC19 and HSC4 cells incubated in a medium supplemented with US077 (pimozide). […] OSC19 and HSC4 cells were seeded in 96-well plates at 3000 cells/well and 2000 cells/well, respectively. On the following day, 0 μM (no addition), 0.3 μM, 1 μM, 3 μM, 10 μM, 30 μM, or 100 μM of pimozide or 0 μM (no addition), 10 μM, 30 μM, 100 μM, 300 μM, or 1000 μM of sulfasalazine were added. Then, the cells were incubated for 72 hours and cell viability was measured using Celltiter-Glo (Promega).

OSC19 cells [4] = test: Subcutaneous OSC19 transplant in nude mice, tumor volume and tumor mass; format: in vivo; conditions: 1 mg/kg intraperitoneally once daily from day 5 to day 35 versus saline; FIGS. 9 and 10
Procedure: Next, 1×10^6 OSC19 cells were subcutaneously transplanted into nude mice. After 5 days of transplantation, 1 mg/kg of pimozide or saline was intraperitoneally administered once daily to day 35. Short and long axes of each tumor were measured once every 3-4 days and a volume of the tumor was calculated using the following equation. Tumor volume=(long axis×(short axis)^2)/2 Specific tumor volume=tumor volume on the day measured/tumor volume at the beginning of administration Statistic analysis of the tumor volume was performed using Two-way ANOVA. Each tumor was removed after the treatment experiments and the mass of the tumor was measured. Statistic analysis of the tumor mass was performed using a t-test.

OSC19 and HSC4 cells [5] = test: Intracellular reactive oxygen species by H2DCFDA staining with pimozide or sulfasalazine; format: cell-based; conditions: 24 hours, FIG. 11; for inductive effect on intracellular accumulation of reactive oxygen species, OSC19 versus HSC4: pimozide 1, 3, 10 μM, sulfasalazine 300 μM
Procedure: OSC19 and HSC4 cells were seeded onto 24-well glass-bottomed plate at 1×10^5 cells/well. On the following day, 0 μM (no addition), 1 μM, 3 μM, or 10 μM of pimozide or 300 μM of sulfasalazine was added. Subsequently, the cells were incubated for 24 hours, stained with H2DCFDA to visualize intracellular reactive oxygen species, and observed under a fluorescence microscope.

OSC19 and HSC4 cells [6] = test: Cell viability by Celltiter-Glo after 72-hour incubation with sertindole; format: cell-based; conditions: sertindole 0.19-45.00 μM, FIG. 12
Procedure: OSC19 and HSC4 cells were seeded in 96-well plates at 3000 cells/well and 2000 cells/well, respectively, and started to be incubated. Two days after the beginning of the incubation, 0 μM (no addition), 0.19 μM, 0.56 μM, 1.67 μM, 5.00 μM, 15.00 μM, or 45.00 μM of sertindole was added. After 72-hour incubation, the number of the survived cells was measured using Celltiter-Glo (registered trademark) (Luminescent Cell Viability Assay; Promega). A ratio of the number of the survived cells to the number of the cells on the first day of incubation was calculated as a cell viability value.

OSC19 cells [7] = test: Ratio of H2DCFDA-stained cells to Hoechst33342-stained cells with sertindole or sulfasalazine; format: cell-based; conditions: 10 μM sertindole versus 300 μM sulfasalazine, 24 hours; FIG. 13
Procedure: OSC19 cells were seeded onto 24-well glass-bottomed plate at 1×10^5 cells/well and started to be incubated. Two days after the beginning of the incubation, 0.1 μM, 1 μM, or 10 μM of sertindole or 300 μM of sulfasalazine was added. DMSO was added to the control. The cells were then incubated for 24 hours, and 2′,7′-dichloro-dihydro-fluorescein-diacetate (H2DCFDA), which is a redox fluorescence indicator capable of emitting fluorescence when oxidized by reactive oxygen species in cells and Hoechst33342 that stains a cell nucleus were added. A ratio of the number of cells stained with H2DCFDA to the number of cells stained with Hoechst33342 was calculated.

OSC19 = test: Combined use of pimozide and sulfasalazine, cell viability by CellTiter-Glo after 72 hours; format: cell-based; conditions: 150 μM of sulfasalazine alone, OSC19, 72 hours
Procedure: Oral squamous cell carcinoma cell line, OSC19, was seeded onto 96-well plates at 3000 cells/well. On the following day, a combination of 0 μM (no addition; only DMSO), 1 μM, 2 μM, or 3 μM of pimozide, and 0 μM (no addition; only DMSO), 10 μM, 50 μM, 100 μM, 150 μM, or 200 μM of sulfasalazine was added. Subsequently, cells were incubated for 72 hours, and cell viability was measured using a CellTiter-Glo Luminescent Cell Viability Assay kit (Promega). Effects obtained using pimozide and sulfasalazine at different concentrations are shown in a graph in FIG. 14.

N.N.[Cl][Pt][Cl] [cisplatin]
sensitivity to cisplatin (cell viability) [1]: significantly lower in sensitivity to cisplatin

O=c1[nH]c2ccccc2n1C1CCN(CCCC(c2ccc(F)cc2)c2ccc(F)cc2)CC1 [pimozide, Pimozide]
increase in ROS in OSC19 cells scored on 4 rating scales (OSC19 cells [2]): significantly great increase in ROS level
inhibitory effect on cell proliferation, concentration compared with sulfasalazine (OSC19 and HSC4 cells [3]): inhibitory effect on cell proliferation at a lower concentration than sulfasalazine
sensitivity of OSC19 cells versus HSC4 cells (cell viability) (OSC19 and HSC4 cells [3]): higher sensitivity to pimozide than the HSC4 cells
tumor volume and tumor mass on day 35 (proliferation of OSC19 cells in mice) (OSC19 cells [4]): inhibition of proliferation of the OSC19 cells
inductive effect on intracellular accumulation of reactive oxygen species compared with sulfasalazine (OSC19 and HSC4 cells [5]; pimozide 1, 3, 10 μM versus sulfasalazine 300 μM): significantly greater inductive effect on intracellular accumulation of reactive oxygen species at a significantly lower concentration as compared with sulfasalazine
inductive effect on intracellular accumulation of reactive oxygen species, OSC19 versus HSC4 (OSC19 and HSC4 cells [5]): inductive effect on intracellular accumulation of reactive oxygen species selectively in OSC19 cells

O=C1NCCN1CCN1CCC(c2cn(-c3ccc(F)cc3)c3ccc(Cl)cc23)CC1 [sertindole, Sertindole]
inhibition of cell proliferation, OSC19 versus HSC4 (cell viability) (OSC19 and HSC4 cells [6]): cell proliferation was inhibited by the addition of a lower concentration of sertindole for OSC19 than for HSC4
intracellular ROS level (H2DCFDA-stained / Hoechst33342-stained cells) compared with sulfasalazine (OSC19 cells [7]): intracellular ROS level was higher as compared with a case where sulfasalazine was added at 30 times higher concentration

Sulfasalazine
sensitivity of OSC19 cells versus HSC4 cells (cell viability) (OSC19 and HSC4 cells [3]): higher sensitivity to sulfasalazine than the HSC4 cells
inductive effect on intracellular accumulation of reactive oxygen species, OSC19 versus HSC4 (OSC19 and HSC4 cells [5]): selectively in OSC19 cells as in the case of sulfasalazine
mortality of cells (OSC19): about 30%
